According to patent US6362369B1, “Phthalic acid diamide derivatives fluorine-containing aniline compounds as starting material, agricultural and horticultural insecticides, and a method for application of the insecticides” (Nihon Nohyaku Co., Ltd., priority 1997, dated 2002):

Legend:
Assay type in all cases: in vivo
[1] = tested on: diamondback moth (Plutella xylostella); assay: Insecticidal effect on diamondback moth (Test Example 1); conditions: for Insecticidal effect (Test Example 1), judged from mortality / Insecticidal effect, Test Example 1: diamondback moth; for Insecticidal effect (Test Example 1), judged from mortality: judged by the criterion of Test Example 1; for Insecticidal effect on diamondback moth (Test Example 1), judged grade: mortality judged according to the criterion shown in Test Example 1
Method in brief: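 Triplicate groups of 10 insects were scored: six days after immersion of oviposited Chinese cabbage seedlings and holding at 25 °C post air-drying, hatched larvae were counted. Mortality derived from these counts and insecticidal effect judged by a set criterion.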

[2] = tested on: rice leafroller (Cnaphalocrocis medinalis); assay: Insecticidal effect on rice leafroller (Test Example 3); conditions: 500 ppm, 25° C., humidity 70%; for Insecticidal effect (Test Example 3), judged from mortality / Insecticidal effect on rice leafroller (Test Example 3), judged grade: rice lamina dip; for Insecticidal effect (Test Example 3), judged from mortality: 4 days after inoculation; for Insecticidal effect on rice leafroller (Test Example 3), judged grade: third-instar larvae; for Insecticidal effect on rice leafroller (Test Example 3), judged grade / Insecticidal effect, Test Example 3: four days after inoculation; for Insecticidal effect, Test Example 3: rice lamina immersed
Method in brief: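 Insecticidal effect is judged by a predefined criterion from dead/alive counts four days after infesting air-dried lamina with third-instar larvae, kept on moistened filter paper at 25° C, 70% humidity.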

[3] = tested on: common cutworm (Spodoptera Litura); assay: Insecticidal effect on common cutworm (Test Example 2); conditions: 500 ppm, 25° C.; for Insecticidal effect (Test Example 2), judged from mortality / Insecticidal effect on common cutworm (Test Example 2), judged grade: cabbage leaf dip; for Insecticidal effect (Test Example 2), judged from mortality: 8 days after inoculation; for Insecticidal effect on common cutworm (Test Example 2), judged grade: second-instar larvae; for Insecticidal effect on common cutworm (Test Example 2), judged grade / Insecticidal effect, Test Example 2: eight days after inoculation; for Insecticidal effect, Test Example 2: cabbage leaf immersed
Method in brief: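 Mortality is the read-out: larvae are counted as dead or alive on day 8 and the percentage is graded by an effect criterion. Second-instar larvae are kept with the air-dried treated material in a sealed dish at 25° C, in triplicate groups of ten.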

[4] = third-instar larvae of rice leafroller
[5] = second-instar larvae of common cutworm
[6] = mortality judged by criterion of Test Example 1
[7] = rice leafroller third-instar larvae
[8] = common cutworm second-instar larvae
[9] = judged by the mortality criterion of Test Example 1

SMILES: Cc1cc(C(F)(F)C(F)(F)F)ccc1NC(=O)c1cccc(Cl)c1C(=O)NC(C)(C)C#Cc1ccccn1 [compound 1587]
- Insecticidal effect (Test Example 1), judged from mortality [1]: A (100)
- Insecticidal effect (Test Example 3), judged from mortality [2, 4]: A (100)
- Insecticidal effect (Test Example 2), judged from mortality [3, 5]: A (100)

SMILES: Cc1cc(C(F)(F)C(F)(F)C(F)(F)F)ccc1NC(=O)c1cccc([N+](=O)[O-])c1C(=O)NC(C)C [compound 684]
- Insecticidal effect on diamondback moth (Test Example 1), judged grade [1]: A (100)
- Insecticidal effect on rice leafroller (Test Example 3), judged grade [2]: A (100)
- Insecticidal effect on common cutworm (Test Example 2), judged grade [3]: A (100)

SMILES: C#CC(C)(C)NC(=O)c1ccccc1C(=O)Nc1ccc(C(F)(F)C(F)(F)F)cc1C [compound 1414]
- Insecticidal effect, Test Example 1 [1, 6]: A (100)
- Insecticidal effect, Test Example 3 [2, 7]: A (100)
- Insecticidal effect, Test Example 2 [3, 8]: A (100)

SMILES: Cc1cc(Oc2cccc(C(F)(F)F)c2)ccc1NC(=O)c1c(Br)cccc1C(=O)NC(C)C [compound 334]
- Insecticidal effect, Test Example 1 [1, 9]: A (100)
- Insecticidal effect, Test Example 3 [2, 4]: C (89-80)
- Insecticidal effect, Test Example 2 [3, 5]: C (89-80)

SMILES: CC(C)NC(=O)c1c(F)cccc1C(=O)Nc1ccc(C(F)(F)C(F)(F)C(F)(F)F)cc1 [compound 473]
- Insecticidal effect on diamondback moth (Test Example 1), judged grade [1]: A (100)
- Insecticidal effect on rice leafroller (Test Example 3), judged grade [2]: A (100)
- Insecticidal effect on common cutworm (Test Example 2), judged grade [3]: A (100)

SMILES: Cc1cc(C(F)(F)C(F)(F)F)ccc1NC(=O)c1cccc(Cl)c1C(=O)NC(C)CO (stereo not drawn) [compound 1298]
- Insecticidal effect, Test Example 1 [1, 6]: A (100)
- Insecticidal effect, Test Example 3 [2, 7]: A (100)
- Insecticidal effect, Test Example 2 [3, 8]: A (100)

SMILES: Cc1c(NC(=O)c2ccccc2C(=O)NC(C)C)cccc1OC(F)(F)C(F)Cl (stereo not drawn) [compound 61]
- Insecticidal effect, Test Example 1 [1, 9]: A (100)
- Insecticidal effect, Test Example 3 [2, 4]: A (100)
- Insecticidal effect, Test Example 2 [3, 5]: B (99-90)

SMILES: Cc1ccc(F)cc1NC(=O)c1cccc([N+](=O)[O-])c1C(=O)NC(C)C [compound 676]
- Insecticidal effect on diamondback moth (Test Example 1), judged grade [1]: A (100)
- Insecticidal effect on rice leafroller (Test Example 3), judged grade [2]: A (100)
- Insecticidal effect on common cutworm (Test Example 2), judged grade [3]: C (89-80)

SMILES: Cc1cc(C(F)(F)C(F)(F)F)ccc1N(C)C(=O)c1cccc(I)c1C(=O)N(C)C(C)C [compound 1121]
- Insecticidal effect, Test Example 1 [1, 6]: A (100)
- Insecticidal effect, Test Example 3 [2, 7]: A (100)
- Insecticidal effect, Test Example 2 [3, 8]: A (100)

SMILES: Cc1c(Cl)cccc1NC(=O)c1cccc(F)c1C(=O)NC(C)C [compound 489]
- Insecticidal effect on diamondback moth (Test Example 1), judged grade [1]: A (100)
- Insecticidal effect on rice leafroller (Test Example 3), judged grade [2]: A (100)
- Insecticidal effect on common cutworm (Test Example 2), judged grade [3]: A (100)

SMILES: CC(C)(C)NC(=O)c1c(Cl)cccc1C(=O)Nc1ccc(C(F)(F)C(F)(F)F)cc1F [compound 1448]
- Insecticidal effect (Test Example 1), judged from mortality [1]: A (100)
- Insecticidal effect (Test Example 3), judged from mortality [2, 4]: A (100)
- Insecticidal effect (Test Example 2), judged from mortality [3, 5]: A (100)

SMILES: Cc1cc(OC(F)F)ccc1NC(=O)c1c(Cl)cccc1C(=O)NC(C)C [compound 236]
- Insecticidal effect, Test Example 1 [1, 9]: A (100)
- Insecticidal effect, Test Example 3 [2, 4]: A (100)
- Insecticidal effect, Test Example 2 [3, 5]: A (100)

SMILES: Cc1cc(OC(F)(F)C(F)C(F)(F)F)ccc1NC(=O)c1cccc(Br)c1C(=O)NC(C)C (stereo not drawn) [compound 291]
- Insecticidal effect, Test Example 1 [1, 9]: A (100)
- Insecticidal effect, Test Example 3 [2, 4]: A (100)
- Insecticidal effect, Test Example 2 [3, 5]: A (100)

SMILES: Cc1cc(C(F)(F)C(F)(Cl)Cl)ccc1NC(=O)c1ccccc1C(=O)NC(C)C [compound 64]
- Insecticidal effect, Test Example 1 [1, 9]: A (100)
- Insecticidal effect, Test Example 3 [2, 4]: A (100)
- Insecticidal effect, Test Example 2 [3, 5]: B (99-90)

SMILES: Cc1c(Cl)cccc1NC(=O)c1cccc(Cl)c1C(=O)NC(C)C [compound 118]
- Insecticidal effect, Test Example 1 [1, 9]: A (100)
- Insecticidal effect, Test Example 3 [2, 4]: A (100)
- Insecticidal effect, Test Example 2 [3, 5]: A (100)

SMILES: CCC(C)NC(=O)c1c(I)cccc1C(=O)Nc1ccc(C(F)(F)C(F)(F)F)cc1Cl (stereo not drawn) [compound 1473]
- Insecticidal effect (Test Example 1), judged from mortality [1]: A (100)
- Insecticidal effect (Test Example 3), judged from mortality [2, 4]: A (100)
- Insecticidal effect (Test Example 2), judged from mortality [3, 5]: A (100)

SMILES: CC(C)NC(=O)c1cccc(Cl)c1C(=O)Nc1ccc(C(F)(F)C(F)(F)F)cc1 [compound 894]
- Insecticidal effect on diamondback moth (Test Example 1), judged grade [1]: A (100)
- Insecticidal effect on rice leafroller (Test Example 3), judged grade [2]: A (100)
- Insecticidal effect on common cutworm (Test Example 2), judged grade [3]: A (100)

SMILES: CC(C)NC(=O)c1c(Cl)cccc1C(=O)Nc1ccc(F)cc1F [compound 113]
- Insecticidal effect, Test Example 1 [1, 9]: A (100)
- Insecticidal effect, Test Example 3 [2, 4]: A (100)
- Insecticidal effect, Test Example 2 [3, 5]: B (99-90)

SMILES: CC(C)NC(=O)c1c(Br)cccc1C(=O)Nc1ccc(OC(F)(F)F)cc1 [Compound No. 262, 3-bromo-N^1-(4-trifluoromethoxyphenyl)-N^2-isopropylphthalic acid diamide]
- Insecticidal effect, Test Example 1 [1, 9]: A (100)
- Insecticidal effect, Test Example 3 [2, 4]: D (79-50)
- Insecticidal effect, Test Example 2 [3, 5]: A (100)

SMILES: CC(C)NC(=O)c1c(Cl)cccc1C(=O)Nc1ccc(C=C(Cl)Cl)cc1 [compound 915]
- Insecticidal effect on diamondback moth (Test Example 1), judged grade [1]: A (100)
- Insecticidal effect on rice leafroller (Test Example 3), judged grade [2]: A (100)
- Insecticidal effect on common cutworm (Test Example 2), judged grade [3]: A (100)

SMILES: CC(C)NC(=O)c1c(Cl)cccc1C(=O)Nc1ccc(C(F)(F)C(F)(F)F)cc1 [compound 893]
- Insecticidal effect on diamondback moth (Test Example 1), judged grade [1]: A (100)
- Insecticidal effect on rice leafroller (Test Example 3), judged grade [2]: A (100)
- Insecticidal effect on common cutworm (Test Example 2), judged grade [3]: A (100)

SMILES: Cc1c(Cl)ccc(NC(=O)c2cccc(Br)c2C(=O)NC(C)C)c1C [compound 269]
- Insecticidal effect, Test Example 1 [1, 9]: A (100)
- Insecticidal effect, Test Example 3 [2, 4]: A (100)
- Insecticidal effect, Test Example 2 [3, 5]: A (100)

SMILES: CCN(CC)C(=O)c1c(I)cccc1C(=O)Nc1ccc(OC(F)(F)F)cc1F [compound 1190]
- Insecticidal effect, Test Example 1 [1, 6]: A (100)
- Insecticidal effect, Test Example 3 [2, 7]: A (100)
- Insecticidal effect, Test Example 2 [3, 8]: A (100)

SMILES: CC(C)(C)NC(=O)c1c(Cl)cccc1C(=O)Nc1ccc(C(F)(F)C(F)(F)C(F)(F)F)cc1F [compound 1496]
- Insecticidal effect (Test Example 1), judged from mortality [1]: A (100)
- Insecticidal effect (Test Example 3), judged from mortality [2, 4]: A (100)
- Insecticidal effect (Test Example 2), judged from mortality [3, 5]: A (100)

SMILES: Cc1cc(Cl)ccc1NC(=O)c1cccc(Cl)c1C(=O)NC(C)C [compound 119]
- Insecticidal effect, Test Example 1 [1, 9]: A (100)
- Insecticidal effect, Test Example 3 [2, 4]: A (100)
- Insecticidal effect, Test Example 2 [3, 5]: A (100)
